From patent publication US10059701B2 (Merck Patent GmbH, priority 2015, dated 2018)

Legend:
IRAK1 = target: T1, IRAK1 (Homo sapiens, UniProt P51617); assay: IRAK1 enzymatic assay (ADP-Glo luminescence); format: biochemical; conditions: purified human recombinant His-TEV-IRAK1 (194-712)
T1 construct: His-TEV-IRAK1 (194-712); His (N); TEV cleavage site (N)
Outline: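 Luminescent ADP-Glo read-out of ATP turnover by purified His-TEV-IRAK1 (194-712) at 0.3 μg/ml after a 2-hour RT reaction. Compounds, serially diluted from 10 μM to 0.5 nM, were preincubated with enzyme 15 minutes in Hepes pH 7.0 buffer with MgCl2, DTT, EGTA and Triton X-100.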

IRAK4 = target: T2, IRAK4 (Homo sapiens, UniProt Q9NWZ3); assay: IRAK4 enzymatic assay (ADP-Glo luminescence); format: biochemical; conditions: purified human recombinant His-TEV-IRAK4 (1-460), ATP 2 μM
T2 construct: His-TEV-IRAK4 (1-460); His (N); TEV cleavage site (N)
T2 sequence (Q9NWZ3 1-460): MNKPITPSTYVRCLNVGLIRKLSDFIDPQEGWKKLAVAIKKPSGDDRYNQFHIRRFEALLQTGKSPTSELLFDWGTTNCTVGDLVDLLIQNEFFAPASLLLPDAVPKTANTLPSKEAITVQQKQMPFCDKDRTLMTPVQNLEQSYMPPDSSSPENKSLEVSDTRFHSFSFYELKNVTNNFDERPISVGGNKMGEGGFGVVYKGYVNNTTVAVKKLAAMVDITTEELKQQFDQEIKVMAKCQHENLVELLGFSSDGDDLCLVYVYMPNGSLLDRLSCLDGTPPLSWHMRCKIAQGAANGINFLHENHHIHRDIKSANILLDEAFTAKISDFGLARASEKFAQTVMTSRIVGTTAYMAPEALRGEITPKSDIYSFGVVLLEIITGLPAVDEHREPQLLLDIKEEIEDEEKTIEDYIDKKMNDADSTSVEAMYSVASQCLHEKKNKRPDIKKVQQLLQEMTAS
Outline: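 ADP-Glo luminescence read-out after a 2 h RT kinase reaction with 2 μM ATP and 300 nM biotinylated STK1 peptide. Enzyme (His-TEV-IRAK4 1-460, 0.3 μg/ml) first incubated 15 min with serially diluted compounds (10 μM–0.5 nM) in 50 mM Hepes pH 7.0, 10 mM MgCl2, 5 mM MnCl2.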

T1 sequence (P51617 194-712): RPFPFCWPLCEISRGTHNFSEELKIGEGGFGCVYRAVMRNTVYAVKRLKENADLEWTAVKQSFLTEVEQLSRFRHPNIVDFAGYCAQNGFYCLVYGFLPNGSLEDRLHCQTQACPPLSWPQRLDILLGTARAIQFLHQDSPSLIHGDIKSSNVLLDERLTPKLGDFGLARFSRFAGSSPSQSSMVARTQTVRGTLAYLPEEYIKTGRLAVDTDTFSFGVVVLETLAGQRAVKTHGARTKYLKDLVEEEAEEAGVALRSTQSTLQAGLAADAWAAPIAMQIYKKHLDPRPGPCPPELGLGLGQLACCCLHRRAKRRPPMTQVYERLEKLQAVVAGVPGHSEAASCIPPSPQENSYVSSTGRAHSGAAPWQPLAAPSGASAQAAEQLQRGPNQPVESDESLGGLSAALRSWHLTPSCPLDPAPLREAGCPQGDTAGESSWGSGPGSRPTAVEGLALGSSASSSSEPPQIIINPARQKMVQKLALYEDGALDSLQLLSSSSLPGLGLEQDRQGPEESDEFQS

Compound: O=C(/N=c1\[nH]c2cc(N3CCCOC3=O)ccc2n1C1CCS(=O)(=O)C1)c1cccc(C(F)(F)F)c1 (stereo not drawn) [Compound 157, (E)-N-(1-(1,1-dioxidotetrahydrothiophen-3-yl)-5-(2-oxo-1,3-oxazinan-3-yl)-1H-benzo[d]imidazol-2(3H)-ylidene)-3-(trifluoromethyl)benzamide]
- IC50 (IRAK1): ≤ 0.1 µM
- IC50 (IRAK4): ≤ 0.1 µM

Compound: C[S+]([O-])CCn1/c(=N/C(=O)c2cccc(C(F)F)c2)[nH]c2cc(N3CCOCC3=O)ccc21 (stereo not drawn) [Compound 94, (E)-3-(difluoromethyl)-N-(1-(2-(methylsulfinyl)ethyl)-5-(3-oxomorpholino)-1H-benzo[d]imidazol-2(3H)-ylidene)benzamide]
- IC50 (IRAK1): 0.1 to 1 µM
- IC50 (IRAK4): ≤ 0.1 µM

Compound: O=C(/N=c1\[nH]c2cc(N3CCOCC3=O)ccc2n1CCCO)c1ccc2c(c1)COC2=O [Compound 23, (E)-N-(1-(3-hydroxypropyl)-5-(3-oxomorpholino)-1H-benzo[d]imidazol-2(3H)-ylidene)-1-oxo-1,3-dihydroisobenzofuran-5-carboxamide]
- IC50 (IRAK1): > 1 µM
- IC50 (IRAK4): ≤ 0.1 µM

Compound: CSCCn1/c(=N/C(=O)c2cccc(C(F)F)c2)[nH]c2cc(N3CCOCC3=O)ccc21 [Compound 63, (E)-3-(difluoromethyl)-N-(1-(2-(methylthio)ethyl)-5-(3-oxomorpholino)-1H-benzo[d]imidazol-2(3H)-ylidene)benzamide]
- IC50 (IRAK1): 0.1 to 1 µM
- IC50 (IRAK4): ≤ 0.1 µM

Compound: O=C(/N=c1\[nH]c2cc(-n3ncccc3=O)ccc2n1CCCO)c1cccc(C(F)(F)F)c1 [Example 201, (E)-N-(1-(3-hydroxypropyl)-5-(6-oxopyridazin-1(6H)-yl)-1H-benzo[d]imidazol-2(3H)-ylidene)-3-(trifluoromethyl)benzamide]
- IC50 (IRAK1): ≤ 0.1 µM
- IC50 (IRAK4): ≤ 0.1 µM

Compound: CS(=O)(=O)c1cccc(C(=O)/N=c2\[nH]c3cc(N4CCOCC4=O)ccc3n2[C@H]2CC[C@@H](O)CC2)c1 [Compound 54, cis-(E)-N-(1-(4-hydroxycyclohexyl)-5-(3-oxomorpholino)-1H-benzo[d]imidazol-2(3H)-ylidene)-3-(methylsulfonyl)benzamide]
- IC50 (IRAK1): ≤ 0.1 µM
- IC50 (IRAK4): ≤ 0.1 µM

Compound: C[C@H](CCO)n1/c(=N/C(=O)c2cccc(S(C)(=O)=O)c2)[nH]c2cc(N3CCOCC3=O)ccc21 [Compound 24, (R,E)-N-(1-(4-hydroxybutan-2-yl)-5-(3-oxomorpholino)-1H-benzo[d]imidazol-2(3H)-ylidene)-3-(methylsulfonyl)benzamide]
- IC50 (IRAK1): 0.1 to 1 µM
- IC50 (IRAK4): ≤ 0.1 µM

Compound: CS(=O)(=O)c1cccc(C(=O)/N=c2\[nH]c3cc(N4CCOCC4=O)ccc3n2[C@H]2CC[C@H](O)CC2)c1 [Compound 31, trans-(E)-N-(1-(4-hydroxycyclohexyl)-5-(3-oxomorpholino)-1H-benzo[d]imidazol-2(3H)-ylidene)-3-(methylsulfonyl)benzamide]
- IC50 (IRAK1): ≤ 0.1 µM
- IC50 (IRAK4): ≤ 0.1 µM

Compound: O=C(O)CCCn1/c(=N/C(=O)c2cccc(C(F)(F)F)c2)[nH]c2cc(N3CCCOC3=O)ccc21 [Compound 168, (E)-4-(5-(2-oxo-1,3-oxazinan-3-yl)-2-((3-(trifluoromethyl)benzoyl)imino)-2,3-dihydro-1H-benzo[d]imidazol-1-yl)butanoic acid]
- IC50 (IRAK1): > 1 µM
- IC50 (IRAK4): ≤ 0.1 µM

Compound: N#Cc1cccc(C(=O)/N=c2\[nH]c3cc(N4CCOC4=O)ccc3n2CCCO)c1 [Compound 11, (E)-3-cyano-N-(1-(3-hydroxypropyl)-5-(2-oxooxazolidin-3-yl)-1H-benzo[d]imidazol-2(3H)-ylidene)benzamide]
- IC50 (IRAK1): 0.1 to 1 µM
- IC50 (IRAK4): ≤ 0.1 µM

Compound: O=C(/N=c1\[nH]c2cc(N3CCOCC3=O)ccc2n1CC1(CO)CC1)c1cccc(C(F)(F)F)c1 [Compound 9, (E)-N-(1-((1-(hydroxymethyl)cyclopropyl)methyl)-5-(3-oxomorpholino)-1H-benzo[d]imidazol-2(3H)-ylidene)-3-(trifluoromethyl)benzamide]
- IC50 (IRAK1): 0.1 to 1 µM
- IC50 (IRAK4): ≤ 0.1 µM

Compound: O=C(/N=c1\[nH]c2cc(N3C(=O)COCC34CC4)ccc2n1CCCO)c1cccc(C(F)F)c1 [Example 190, (E)-3-(difluoromethyl)-N-(1-(3-hydroxypropyl)-5-(5-oxo-7-oxa-4-azaspiro[2.5]octan-4-yl)-1H-benzo[d]imidazol-2(3H)-ylidene)benzamide]
- IC50 (IRAK1): ≤ 0.1 µM
- IC50 (IRAK4): ≤ 0.1 µM

Compound: CC(C)(F)Cn1/c(=N/C(=O)c2cccc(C(F)(F)F)c2)[nH]c2cc(N3CCCOC3=O)ccc21 [Compound 178, (E)-N-(1-(2-fluoro-2-methylpropyl)-5-(2-oxo-1,3-oxazinan-3-yl)-1H-benzo[d]imidazol-2(3H)-ylidene)-3-(trifluoromethyl)benzamide]
- IC50 (IRAK1): 0.1 to 1 µM
- IC50 (IRAK4): ≤ 0.1 µM

Compound: O=C1C[C@H](n2/c(=N/C(=O)c3cccc(C(F)(F)F)c3)[nH]c3cc(N4CCCOC4=O)ccc32)CN1 [Compound 154, (S,E)-N-(5-(2-oxo-1,3-oxazinan-3-yl)-1-(5-oxopyrrolidin-3-yl)-1H-benzo[d]imidazol-2(3H)-ylidene)-3-(trifluoromethyl)benzamide]
- IC50 (IRAK1): > 1 µM
- IC50 (IRAK4): 0.1 to 1 µM

Compound: C[C@H](CCO)n1/c(=N/C(=O)c2cccc(OC(F)F)c2)[nH]c2cc(N3CCOCC3=O)ccc21 [Compound 65, (R,E)-3-(difluoromethoxy)-N-(1-(4-hydroxybutan-2-yl)-5-(3-oxomorpholino)-1H-benzo[d]imidazol-2(3H)-ylidene)benzamide]
- IC50 (IRAK1): ≤ 0.1 µM
- IC50 (IRAK4): ≤ 0.1 µM

Compound: O=C(/N=c1\[nH]c2cc(N3CC4CCC(C3=O)N4C3CC3)ccc2n1CCCO)c1cccc(C(F)(F)F)c1 (stereo not drawn) [Example 215, (E)-N-(5-(8-cyclopropyl-2-oxo-3,8-diazabicyclo[3.2.1]octan-3-yl)-1-(3-hydroxypropyl)-1H-benzo[d]imidazol-2(3H)-ylidene)-3-(trifluoromethyl)benzamide]
- IC50 (IRAK1): > 1 µM
- IC50 (IRAK4): ≤ 0.1 µM

Compound: O=C(/N=c1\[nH]c2cc(N3C(=O)CN4CCC3CC4)ccc2n1CCCO)c1cccc(C(F)F)c1 [Example 212, (E)-3-(difluoromethyl)-N-(1-(3-hydroxypropyl)-5-(3-oxo-1,4-diazabicyclo[3.2.2]nonan-4-yl)-1H-benzo[d]imidazol-2(3H)-ylidene)benzamide]
- IC50 (IRAK1): 0.1 to 1 µM
- IC50 (IRAK4): ≤ 0.1 µM

Compound: CN1CCN(c2ccc3c(c2)[nH]/c(=N\C(=O)c2cccc(C(F)F)c2)n3CCCO)C(=O)C1 [Compound 111, (E)-3-(difluoromethyl)-N-(1-(3-hydroxypropyl)-5-(4-methyl-2-oxopiperazin-1-yl)-1H-benzo[d]imidazol-2(3H)-ylidene)benzamide]
- IC50 (IRAK1): 0.1 to 1 µM
- IC50 (IRAK4): ≤ 0.1 µM

Compound: O=C(/C=C1\Nc2cc(N3CCOCC3=O)ccc2N1CCCO)c1cccc(C(F)(F)F)n1 [Compound 147, (E)-4-(1-(3-hydroxypropyl)-2-(2-oxo-2-(6-(trifluoromethyl)pyridin-2-yl)ethylidene)-2,3-dihydro-1H-benzo[d]imidazol-5-yl)morpholin-3-one]
- IC50 (IRAK1): 0.1 to 1 µM
- IC50 (IRAK4): ≤ 0.1 µM

Compound: O=C(/C=C1\Nc2cc(N3CCOCC3=O)ccc2N1CCCO)c1cccc(Br)n1 [Compound 148, (E)-4-(2-(2-(6-bromopyridin-2-yl)-2-oxoethylidene)-1-(3-hydroxypropyl)-2,3-dihydro-1H-benzo[d]imidazol-5-yl)morpholin-3-one]
- IC50 (IRAK1): 0.1 to 1 µM
- IC50 (IRAK4): ≤ 0.1 µM

Compound: O=C(/N=c1\[nH]c2cc(N3CCOCC3=O)ccc2n1CCCO)c1cccc(CF)c1 [Compound 104, (E)-3-(fluoromethyl)-N-(1-(3-hydroxypropyl)-5-(3-oxomorpholino)-1H-benzo[d]imidazol-2(3H)-ylidene)benzamide]
- IC50 (IRAK1): 0.1 to 1 µM
- IC50 (IRAK4): ≤ 0.1 µM

Compound: Cn1cnc2cc(C(=O)/N=c3\[nH]c4cc(N5CCOCC5=O)ccc4n3CCCO)ccc21 [Compound 22, (E)-N-(1-(3-hydroxypropyl)-5-(3-oxomorpholino)-1H-benzo[d]imidazol-2(3H)-ylidene)-1-methyl-1H-benzo[d]imidazole-5-carboxamide]
- IC50 (IRAK1): > 1 µM
- IC50 (IRAK4): > 1 µM

Compound: O=C(/N=c1\[nH]c2cc(N3CCCOC3=O)ccc2n1CC1(O)CCCC1)c1cccc(C(F)(F)F)c1 [Compound 162, (E)-N-(1-((1-hydroxycyclopentyl)methyl)-5-(2-oxo-1,3-oxazinan-3-yl)-1H-benzo[d]imidazol-2(3H)-ylidene)-3-(trifluoromethyl)benzamide]
- IC50 (IRAK1): ≤ 0.1 µM
- IC50 (IRAK4): ≤ 0.1 µM

Compound: O=C(/N=c1\[nH]c2cc(N3CCCOC3=O)ccc2n1CC1COC1)c1cccc(C(F)F)c1 [Compound 159, (E)-3-(difluoromethyl)-N-(1-(oxetan-3-ylmethyl)-5-(2-oxo-1,3-oxazinan-3-yl)-1H-benzo[d]imidazol-2(3H)-ylidene)benzamide]
- IC50 (IRAK1): 0.1 to 1 µM
- IC50 (IRAK4): ≤ 0.1 µM
